From the NIST ThermoML archive (doi:10.1021/acs.jced.8b00132)
Values joined by “and” are separate entries in the source; they are usually repeats but may differ in a detail not shown here. Equal entries are not always repeated. ± gives the expanded uncertainty stated by the source.

O=C(C(F)(F)C(F)(F)F)C(F)(C(F)(F)F)C(F)(F)F [dodecafluoro-2-methylpentan-3-one]
Conditions	thermal conductivity
387.99 K, 395 kPa, Gas, hot wire	0.0199 ± 0.00094 W/m/K
388 K, 395 kPa, Gas, hot wire	0.01971 ± 0.00093 W/m/K
388.06 K, 258 kPa, Gas, hot wire	0.01842 ± 0.00087 W/m/K
388.07 K, 128 kPa, Gas, hot wire	0.01819 ± 0.00086 W/m/K and 0.01818 ± 0.00086 W/m/K
388.08 K, 257 kPa, Gas, hot wire	0.01826 ± 0.00086 W/m/K
388.1 K, 26 kPa, Gas, hot wire	0.01771 ± 0.00083 W/m/K and 0.01756 ± 0.00083 W/m/K
388.1 K, 394 kPa, Gas, hot wire	0.01994 ± 0.00095 W/m/K
388.1 K, 395 kPa, Gas, hot wire	0.01983 ± 0.00094 W/m/K
388.18 K, 257 kPa, Gas, hot wire	0.01851 ± 0.00087 W/m/K
388.19 K, 128 kPa, Gas, hot wire	0.01818 ± 0.00086 W/m/K
388.19 K, 256 kPa, Gas, hot wire	0.0184 ± 0.00087 W/m/K
388.2 K, 128 kPa, Gas, hot wire	0.01804 ± 0.00085 W/m/K
388.2 K, 395 kPa, Gas, hot wire	0.01983 ± 0.00094 W/m/K
388.22 K, 394 kPa, Gas, hot wire	0.01966 ± 0.00093 W/m/K
388.23 K, 26 kPa, Gas, hot wire	0.01766 ± 0.00083 W/m/K and 0.0176 ± 0.00083 W/m/K
388.3 K, 256 kPa, Gas, hot wire	0.01853 ± 0.00087 W/m/K
388.31 K, 256 kPa, Gas, hot wire	0.01853 ± 0.00087 W/m/K
388.31 K, 396 kPa, Gas, hot wire	0.01994 ± 0.00095 W/m/K
388.32 K, 395 kPa, Gas, hot wire	0.01985 ± 0.00094 W/m/K
388.33 K, 127 kPa, Gas, hot wire	0.01792 ± 0.00084 W/m/K
388.33 K, 128 kPa, Gas, hot wire	0.01804 ± 0.00085 W/m/K
388.36 K, 26 kPa, Gas, hot wire	0.0176 ± 0.00083 W/m/K
388.37 K, 26 kPa, Gas, hot wire	0.01755 ± 0.00082 W/m/K
388.43 K, 254 kPa, Gas, hot wire	0.01861 ± 0.00088 W/m/K
388.43 K, 255 kPa, Gas, hot wire	0.01863 ± 0.00088 W/m/K
388.43 K, 396 kPa, Gas, hot wire	0.01991 ± 0.00095 W/m/K
388.45 K, 397 kPa, Gas, hot wire	0.01966 ± 0.00093 W/m/K
388.47 K, 127 kPa, Gas, hot wire	0.01796 ± 0.00084 W/m/K
388.48 K, 127 kPa, Gas, hot wire	0.0179 ± 0.00084 W/m/K
388.49 K, 516 kPa, Gas, transient hot wire	0.01836 ± 0.0011 W/m/K
388.5 K, 26 kPa, Gas, hot wire	0.01759 ± 0.00083 W/m/K
388.51 K, 26 kPa, Gas, hot wire	0.01751 ± 0.00082 W/m/K
388.53 K, 395 kPa, Gas, transient hot wire	0.01832 ± 0.0011 W/m/K
388.56 K, 254 kPa, Gas, hot wire	0.01874 ± 0.00088 W/m/K
388.56 K, 255 kPa, Gas, hot wire	0.01872 ± 0.00088 W/m/K
388.62 K, 127 kPa, Gas, hot wire	0.01791 ± 0.00084 W/m/K
388.62 K, 257 kPa, Gas, transient hot wire	0.01852 ± 0.0011 W/m/K
388.65 K, 26 kPa, Gas, hot wire	0.01756 ± 0.00083 W/m/K
388.66 K, 26 kPa, Gas, hot wire	0.01755 ± 0.00082 W/m/K
388.67 K, 515 kPa, Gas, transient hot wire	0.01836 ± 0.0011 W/m/K
388.68 K, 516 kPa, Gas, transient hot wire	0.01848 ± 0.0011 W/m/K
388.72 K, 394 kPa, Gas, transient hot wire	0.01847 ± 0.0011 W/m/K
388.73 K, 395 kPa, Gas, transient hot wire	0.01843 ± 0.0011 W/m/K
388.77 K, 619 kPa, Gas, transient hot wire	0.01829 ± 0.0011 W/m/K
388.79 K, 619 kPa, Gas, transient hot wire	0.0182 ± 0.0011 W/m/K
388.81 K, 257 kPa, Gas, transient hot wire	0.01868 ± 0.0011 W/m/K
388.82 K, 256 kPa, Gas, transient hot wire	0.01825 ± 0.0011 W/m/K
388.87 K, 514 kPa, Gas, transient hot wire	0.01853 ± 0.0011 W/m/K
388.93 K, 394 kPa, Gas, transient hot wire	0.01809 ± 0.0011 W/m/K and 0.01843 ± 0.0011 W/m/K
388.98 K, 619 kPa, Gas, transient hot wire	0.01836 ± 0.0011 W/m/K and 0.01835 ± 0.0011 W/m/K
389.04 K, 256 kPa, Gas, transient hot wire	0.01865 ± 0.0011 W/m/K
389.05 K, 256 kPa, Gas, transient hot wire	0.01868 ± 0.0011 W/m/K
389.08 K, 515 kPa, Gas, transient hot wire	0.01859 ± 0.0011 W/m/K
389.15 K, 395 kPa, Gas, transient hot wire	0.01856 ± 0.0011 W/m/K
389.19 K, 619 kPa, Gas, transient hot wire	0.01856 ± 0.0011 W/m/K and 0.01854 ± 0.0011 W/m/K
389.26 K, 256 kPa, Gas, transient hot wire	0.01862 ± 0.0011 W/m/K
389.27 K, 255 kPa, Gas, transient hot wire	0.0187 ± 0.0011 W/m/K
389.29 K, 513 kPa, Gas, transient hot wire	0.01867 ± 0.0011 W/m/K
389.29 K, 514 kPa, Gas, transient hot wire	0.01867 ± 0.0011 W/m/K
389.3 K, 67954 kPa, Liquid, transient hot wire	0.07227 ± 0.0015 W/m/K
389.31 K, 53809 kPa, Liquid, transient hot wire	0.06794 ± 0.0014 W/m/K
389.31 K, 53833 kPa, Liquid, transient hot wire	0.06806 ± 0.0014 W/m/K
389.31 K, 67979 kPa, Liquid, transient hot wire	0.0723 ± 0.0015 W/m/K
389.38 K, 396 kPa, Gas, transient hot wire	0.01859 ± 0.0011 W/m/K
389.38 K, 397 kPa, Gas, transient hot wire	0.01856 ± 0.0011 W/m/K
389.42 K, 40396 kPa, Liquid, transient hot wire	0.06362 ± 0.0013 W/m/K
389.42 K, 40406 kPa, Liquid, transient hot wire	0.06374 ± 0.0013 W/m/K
389.43 K, 67897 kPa, Liquid, transient hot wire	0.07231 ± 0.0015 W/m/K
389.43 K, 67923 kPa, Liquid, transient hot wire	0.07209 ± 0.0015 W/m/K
389.48 K, 29881 kPa, Liquid, transient hot wire	0.05966 ± 0.0012 W/m/K
389.5 K, 254 kPa, Gas, transient hot wire	0.01874 ± 0.0012 W/m/K
389.5 K, 53787 kPa, Liquid, transient hot wire	0.06829 ± 0.0014 W/m/K
389.51 K, 255 kPa, Gas, transient hot wire	0.01838 ± 0.0011 W/m/K
389.51 K, 53794 kPa, Liquid, transient hot wire	0.06804 ± 0.0014 W/m/K
389.53 K, 21435 kPa, Liquid, transient hot wire	0.05599 ± 0.0012 W/m/K
389.54 K, 21442 kPa, Liquid, transient hot wire	0.05607 ± 0.0012 W/m/K
389.56 K, 40379 kPa, Liquid, transient hot wire	0.06355 ± 0.0013 W/m/K
389.56 K, 40384 kPa, Liquid, transient hot wire	0.06363 ± 0.0013 W/m/K
389.57 K, 67853 kPa, Liquid, transient hot wire	0.07219 ± 0.0015 W/m/K
389.57 K, 67877 kPa, Liquid, transient hot wire	0.0722 ± 0.0015 W/m/K
389.58 K, 14725 kPa, Liquid, transient hot wire	0.05279 ± 0.0011 W/m/K
389.58 K, 14726 kPa, Liquid, transient hot wire	0.05278 ± 0.0011 W/m/K
389.63 K, 29870 kPa, Liquid, transient hot wire	0.05967 ± 0.0012 W/m/K
389.63 K, 29871 kPa, Liquid, transient hot wire	0.05964 ± 0.0012 W/m/K
